Read-outs that look alike come from different tables or passages of the source.
System: SARS-CoV-2 Delta variant
Conditions: for lung histopathology (H&E): day 2 and day 4; for brain histopathology (H&E): day 4
[1] = day 4, both 100 mpk and 200 mpk groups

Structure (SMILES): O=C[C@H](C[C@@H]1CCNC1=O)NC(=O)[C@H](CC1CCCCC1)NC(=O)c1cc2ccccc2[nH]1 [FB2001]
- change in the body weight of the mice (100 mpk and 200 mpk groups, vs day 0): no significant change
- reduction of lung viral load (100 mpk, day 2, vs vehicle): 1.02 log10 copies/g
- lung histopathology (H&E) (100 mpk): mild interstitial inflammatory cell infiltration
- brain histopathology (H&E) (100 mpk): some neurons were denatured
- reduction of brain viral load (100 mpk, day 4, vs vehicle): 2.37 log10 copies/g
- reduction of lung viral load (100 mpk, day 4, vs vehicle): 0.67 log10 copies/g
- reduction of lung viral load (200 mpk, day 2, vs vehicle): 1.60 log10 copies/g
- reduction of virus titer in lung (200 mpk, day 2, vs vehicle): 3.57 log10 PFU/g
- lung histopathology (H&E) (200 mpk): decreased inflammation and normal alveolar spaces
- brain histopathology (H&E) (200 mpk): Neuronal cells were neatly arranged and abundant
- reduction of brain viral load (200 mpk, day 4, vs vehicle): 5.26 log10 copies/g
- reduction of lung viral load (200 mpk, day 4, vs vehicle): 1.14 log10 copies/g
- brain immunohistochemistry staining of viral NP [1]: nearly cleared
- lung immunohistochemistry staining of viral NP [1]: almost cleared
- Viral titer in brain, Mean (mouse, in vivo): below the detection limit
- Viral titer in lung, Mean (mouse, in vivo): below the detection limit

Reference: paper PMC9617675 (Antiviral Research, 2022)
